From US20190029970A1, “FATTY ACID CONJUGATED NANOPARTICLES AND USES THEREOF” (The Chinese University of Hong Kong, priority 2017, published 2019)

Assay: In vitro release of curcumin by dialysis in 0.1% Tween 20 at 37° C.
Type: physicochemical
Settings: within 24 hours; free curcumin 2 mg/mL in 2-propanol
Protocol: The in vitro release profiles of the drug-loaded NPs were assessed in 0.1% Tween 20 at 37° C. based on a dialysis method reported earlier with modifications. Briefly, 1 mL of the NPs was added into a dialysis tube (Float-A-lyzer G2 with a membrane MWCO 3.5-5 kD, Spectrum Laboratories, Inc., Rancho Dominguez, Calif., USA), which was subsequently placed in 250 mL of 0.1% Tween 20 at 37° C. Dialysate was replaced periodically. Samples (10 μL) were withdrawn from the dialysis tube at designated time points. The samples collected were analyzed using a UPLC-UV method and GraphPad Prism 5 was employed to plot the cumulative drug release versus time. The diffusional behaviour of curcumin (2 mg/mL in isopropanol) was also determined using the same procedure, except the dialysate was replaced with isopropanol.

COc1cc(/C=C/C(=O)CC(=O)/C=C/c2ccc(O)c(OC)c2)ccc1O [free curcumin, curcumin]
curcumin released: > 80%
